# Data from patent US11865176B2, “Compositions and methods of modulating anti-tumor immunity” (Dana-Farber Cancer Institute, Inc., priority 2016, dated 2024).
# Key:
# CDK4/6 = test: Kinome profiling (KINOMEscan), selectivity; type: binding; settings: compared with abemaciclib
# Experimental: Palbociclib and abemaciclib were profiled by DiscoveRx using KINOMEscan (55). Briefly, the two compounds were tested at 100 nM and 1000 nM. Targeted kinases were visualized using the TREEspot™ compound profile visualization tool. Z'LYTE™ kinase assays were conducted for GSK3α and GSK3β at Life Technologies using Km ATP concentrations.
# [1] = system: tumor infiltrating immune cells; test: FACS analysis of lung tumor immune infiltrates, KP GEMM; type: in vivo, mouse
# Text: All animal studies were reviewed and approved by the Institutional Animal Care and Use Committee (IACUC) at the Dana-Farber Cancer Institute. The genetically engineered mouse model (GEMM) harboring a conditional activating mutation of endogenous Kras (Kras^LSL-G12D/+) crossed with p53 conditional knockout Trp53^fl/fl has been previously described (36). CRE recombinase was induced through intranasal inhalation of […] adeno-Cre (University of Iowa adenoviral core).
# For drug treatment studies in GEMM models, mice were evaluated by MRI imaging to quantify lung tumor burden before and after drug treatment. Mice were treated with either vehicle, or 100 mg/kg trilaciclib or 100 mg/kg palbociclib daily by oral gavage.
# Mice were sacrificed, and lungs were perfused using sterile PBS through heart perfusion from the left ventricle after BAL fluid collection. The whole lung was minced into small pieces and digested in collagenase D (Sigma) and Dnase I (Sigma) in Hank's Balanced Salt Solution (HBSS) at 37° C. for 30 min. […] Live cells were determined by LIVE/DEAD® fixable aqua dead cell stain kit (Molecular Probes). The cell pellets were re-suspended in PBS with 2% FBS for Fluorescence-activated cell sorting (FACS) analysis. […] Cells were imaged on BD LSRFortessa (BD Biosciences) and analyzed using FlowJo software (Tree Star).
# total splenocytes = test: IFNγ production (ELISA) by splenocytes of mice treated in vivo; set-up: species or system mouse; settings: tumor-bearing mice, 100 mg/kg IP
# Experimental: FIG. 11. Tumor antigen experienced T cells are more sensitive to CDK4/6 inhibition. A. Naive C57BL/6 mice were treated with trilaciclib (100 mg/kg, IP) or vehicle for three days. Two and seven days after the final treatment, splenocytes were isolated and stimulated with α-CD3/CD28 antibodies for 72 hours to measure IFNγ production by ELISA. B. C57BL/6 mice were implanted with B16F10 tumor cells. Seven days post implantation mice were treated with trilaciclib (100 mg/kg, IP) or vehicle for 5 days. Five days post final treatment splenocytes were isolated and stimulated with α-CD3/CD28 antibodies for IFNγ production by ELISA. C. IL-2 production from Tconv (CD4^+CD25^−) cells after trilaciclib treatment. Tconv cells were isolated from either naive or tumor bearing (TMB) mice and treated with trilaciclib at indicated concentrations, in the presence of CD3 and CD28 antibodies. IL-2 production was determined 3 days after the treatment as percentage. (n=3) IFNγ production in CD8^+ T cells alone from naive or TMB mice after treatment with trilaciclib, as shown by percentage (D) or fold change (E). (n=3) F. Increased IFNγ production in CD8+ T cells by trilaciclib in the presence of Tregs. […] IFNγ production was determined 3 days after the treatment as shown as percentage. […]
# [2] = system: primary human CD4+ T cells; test: IL2 ELISA, primary human CD4+ T cells; type: cell-based; settings: α-CD3/CD28 and recombinant PD-L1 or control IgG; 100 nM (FIG. 1C)
# Experimental: PD-1-overexpressing Jurkat cells as previously published (23) were stimulated with Dynabeads conjugated to α-CD3 (UCHT1), α-CD28 (28.2), and α-PD-1 (clone EH12 from Gordon Freeman) or control IgG at a 4:1 bead:cell ratio in the presence of 1 μM CDK4/6 inhibitor for 18 h. For primary human T cells, normal donor human blood was obtained through DFCI IRB Protocol 04-430. PBMC were isolated using a Ficoll-Paque density gradient, and purified populations of CD4+ T lymphocytes were obtained through a negative magnetic selection kit according to manufacturer's instructions (Miltenyi). […] IL-2 levels in the supernatant were analyzed by AlphaLISA (Perkin Elmers) according to the manufacturer's protocol.
compound,measurement,setting,value
CN1CCN(c2ccc(Nc3ncc4cc5n(c4n3)C3(CCCCC3)CNC5=O)nc2)CC1 [trilaciclib],selectivity for CDK4/6,CDK4/6,significantly more selective for CDK4/6
same,"infiltration of CD4+ T cells and, to a lesser degree, CD8+ cells into lung tumors","[1]; KP mice, 100 mg/kg daily for 7 days",increased infiltration
same,levels of PD-1 and CTLA-4 in CD4+ and CD8+ T cells,"[1]; after treatment, to different extents",reduced
same,IFNγ secretion of total splenocytes,total splenocytes,increased IFNγ secretion
same,IL-2 secretion,[2],enhanced IL-2 secretion
